Reference: PubChem BioAssay (NCI)
Several values for one entry are separate records, joined by “and”; a condition that tells them apart may be missing. Equal entries are not always repeated.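 Assay format: 96-well plates, 48-hour exposure. GI50 = concentration required for 50% inhibition of growth. TGI: concentration producing complete growth inhibition.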

Legend:
Assay in all cases: NCI tumour cell line growth inhibition, 48 h
MALME-3M melanoma = system: MALME-3M melanoma
A549 NSCLC = system: A549 NSCLC
M14 melanoma = system: M14 melanoma
ACHN renal = system: ACHN renal
SF-295 CNS = system: SF-295 CNS
SN12C renal = system: SN12C renal
MDA-MB-231 breast = system: MDA-MB-231 breast
PC-3 prostate = system: PC-3 prostate
HCC-2998 colon = system: HCC-2998 colon
SNB-19 CNS = system: SNB-19 CNS
T-47D breast = system: T-47D breast

Compound | TGI (MALME-3M melanoma) [µM] | TGI (A549 NSCLC) [µM] | TGI (M14 melanoma) | TGI (ACHN renal) [µM] | TGI (SF-295 CNS) [µM] | TGI (SN12C renal) [µM] | TGI (MDA-MB-231 breast) [µM] | TGI (PC-3 prostate) [µM] | TGI (HCC-2998 colon) | TGI (SNB-19 CNS) [µM] | TGI (T-47D breast) [µM] | GI50 (M14 melanoma) [µM] | GI50 (SF-295 CNS) [µM] | GI50 (SN12C renal) [µM]
O=c1cc(-c2ccccc2)[nH]c2c(F)ccc(F)c12 | 96.3 | > 100 | > 100 µM | > 100 | > 100 | > 100 |  |  |  |  |  |  |  | 
CCOC(=O)N1c2c(c3ccccc3n2C(=O)OCC)C(=O)C(OC)N1C(=O)OCC (centres undefined) | 69.8 | > 100 | > 100 µM | 92.7 | 59.4 | > 100 | 83.6 | 80.5 | > 100 µM | > 100 |  |  |  | 
Nc1nc(Cl)cc(NCC2CC(O)(CO)C2)n1 (centres undefined) | > 100 | > 100 |  | > 100 | > 100 | > 100 | > 100 | > 100 | > 100 µM |  | > 100 |  |  | 
CC1CN=C(N(C(=O)Nc2ccccc2)C2CCCCC2)S1 (centres undefined) | 32 | 34.2 |  | 26.3 | 31.8 | 31.2 | 29.9 | 31.3 | 34.6 µM | 81.8 | 92.7 |  |  | 
O=c1[nH]c(=O)c2c([nH]1)[nH]c1ccccc12 | > 100 | > 100 | > 100 µM | > 100 | > 100 | > 100 | > 100 |  |  | > 100 | > 100 |  |  | 
O=C(CSCC(=O)N/N=C\c1cccc(Br)c1)N/N=C\c1cccc(Br)c1 |  | 31.5 | 49.9 µM | 26.4 | 29.9 | 35.2 | 26.2 | 38.1 |  | > 100 | 54.6 |  |  | 
N#Cc1c(NC(=S)Nc2ccccc2)sc2c1CCCC2 | > 100 |  |  | > 100 | > 100 | > 100 | > 100 | > 100 | > 100 µM | > 100 | > 100 |  |  | 
Clc1ccc(C2=NNC(c3cccc(Cl)c3)C2)cc1 (centres undefined) | > 100 | > 100 | > 100 µM |  | 92.6 | 53.2 | 55.1 | 97.4 |  | > 100 | > 100 |  |  | 
O=C(OCC(OC(=O)c1ccccc1)C1CC(C(O)C2CCCCC2)C(=O)O1)c1ccccc1 (centres undefined) |  |  | > 100 µM | > 100 | > 100 | > 100 | > 100 | > 100 | > 100 µM | > 100 | > 100 |  |  | 
Cc1cnc2cc(Cl)ccc2c1SCC(=O)O | > 100 | > 100 | > 100 µM | > 100 | > 100 | > 100 | > 100 | > 100 |  | > 100 | > 100 |  |  | 
CCC(C)Cn1c(C)nc2c1C(=O)c1ccccc1C2=O (centres undefined) | 73.7 | > 100 | > 100 µM | > 100 | > 100 | > 100 |  |  | > 100 µM | > 100 |  |  |  | 
Cc1cccc2c1C(=O)/C(=C/c1ccccc1C(=O)O)C2 | > 100 | > 100 | > 100 µM | > 100 | > 100 | > 100 |  | > 100 | > 100 µM | > 100 | > 100 |  |  | 
CC1[C@@H]2C[C@@H]3O[C@@]34[C@H]3CCC5Cc6nc7c(nc6C[C@@]5(C)C3(O)CC(=O)[C@@]24CO[C@]12OC(C)(C)CC2O)CC1CC[C@@H]2C3=C[C@H]4O[C@@]5(O[C@@](C)(CO)C[C@@H]5O)C(C)[C@@]4(O)[C@]3(C)[C@@H](O)CC2[C@]1(C)C7 (some centres undefined) | 0.247 | 1.16 |  |  | 0.0164 | > 3.52 |  |  | > 3.52 µM |  |  |  |  | 
[O-][n+]1cc(SCc2ccccc2)ncc1SCc1ccccc1 | > 10 | > 10 | > 10 µM | > 10 | > 10 | > 10 | > 10 | > 10 | > 10 µM |  | > 10 |  |  | 
CN(C)CC(C)(C)C(=O)/C=C/c1ccccc1 | 24.1 | > 100 | 26.7 µM | 33.3 | 33.2 | 33.7 |  |  |  | 31.4 |  |  |  | 
COc1cccc2c1C(=O)c1c(O)c3c(c(O)c1C2=O)C[C@@](O)(C(=O)CO)CC3OC1CC(NCCCCC(OC(C)=O)OC(C)=O)C(O)C(C)O1 (some centres undefined) |  |  | 0.00458 µM and 0.00549 µM | 0.0057 | 0.0335 | > 1 |  |  | 0.00495 µM and 0.00577 µM | > 1 |  | 0.0011 | 0.00227 | 0.000935
C=C1CC2C[C@H](OS(=O)(=O)c3ccc(C)cc3)C(C1)N2C (some centres undefined) | > 100 | > 100 | > 100 µM |  | > 100 | > 100 | > 100 | > 100 | > 100 µM | > 100 | > 100 |  |  | 
COc1ccc(OC)c([N+](=O)[O-])c1-c1nc2sc(C)cn2c1/C=N/N=C(N)N | 44.3 | > 100 | > 100 µM | > 100 | 57.1 | 90.1 | 84.4 | > 100 | 60.3 µM |  |  |  |  | 
CN(C)CCSc1nccc(-c2ccc(-c3ccnc(SCCN(C)C)n3)s2)n1 | 24.2 | 31.7 |  |  | 26 | 21 |  |  | 18.6 µM | 38.8 |  |  |  | 
Cc1nc2cccc(F)c2c(=O)n1-c1nnc(C2CC2)s1 |  | > 10 | > 10 µM | > 10 | > 10 | > 10 | > 10 | > 10 | > 10 µM | > 10 | > 10 |  |  | 
N#Cc1nc(-c2ccccn2)c(-c2ccccn2)nc1C#N |  | 19.8 | 8.46 µM | 7.95 | 7.92 | > 100 | > 53 | 19.7 | 17.6 µM | 22 | 9.5 |  |  | 
CCCCCC(=O)OCC1(CO)C/C(=C/CC(C(C)C)C(C)C)C(=O)O1 (centres undefined) | 65.6 | > 75 |  | > 75 | > 75 | > 75 | > 75 | > 75 | > 75 µM | > 75 | > 75 |  |  | 
